# Test results published in article PMC4441592 (Neuron, 2015).
# Key:
# [1] = system: CNS molecular targets; assay: NIMH Psychoactive Drug Screening Program profiling; conditions: NIMH PDSP; except low KOR binding affinity
# [2] = system: mice; conditions: mouse, in vivo
# [3] = target: KORD (D138N hKOR) (Homo sapiens, UniProt P41145, D138N); assay: cell-based
# [4] = target: E297A mutant (Homo sapiens, UniProt P41145, E297A); assay: Affinity and agonist potency at E297A KOR mutant; assay type: cell-based; conditions: E297A mutant alone
# [5] = system: mice; conditions: mouse, in vivo; remark: listed apart in the source
# [6] = system: muscarinic receptor- based DREADDs (Gq, Gi and Gs DREADDs); assay: Activity at muscarinic receptor-based DREADDs; assay type: cell-based
# [7] = system: VTA/SN neurons; assay: Miniature IPSC recording in VTA/SN neurons; assay type: cell-based; conditions: naive mice; 100 nM
# [8] = system: SIM1-Cre mice, PVH^SIM1 neurons; assay: Feeding study in SIM1-cre mice; assay type: in vivo; conditions: wild type control mice injected with cre-dependent KORD virus; 10 mg/kg s.c.
# [9] = target: KOR (Homo sapiens, UniProt P41145); assay: cell-based
# [10] = system: C57BL/6J mice; conditions: mouse, in vivo
# [11] = system: VGAT-ires-Cre mice, VTA/SN^VGAT neurons; assay: Locomotor activity; assay type: in vivo; conditions: mice expressing both KORD and hM3Dq in VTA/SN^VGAT neurons; 10.0 mg/kg; different testing sessions
# KORD (D138N hKOR), sequence (P41145 whole entry D138N): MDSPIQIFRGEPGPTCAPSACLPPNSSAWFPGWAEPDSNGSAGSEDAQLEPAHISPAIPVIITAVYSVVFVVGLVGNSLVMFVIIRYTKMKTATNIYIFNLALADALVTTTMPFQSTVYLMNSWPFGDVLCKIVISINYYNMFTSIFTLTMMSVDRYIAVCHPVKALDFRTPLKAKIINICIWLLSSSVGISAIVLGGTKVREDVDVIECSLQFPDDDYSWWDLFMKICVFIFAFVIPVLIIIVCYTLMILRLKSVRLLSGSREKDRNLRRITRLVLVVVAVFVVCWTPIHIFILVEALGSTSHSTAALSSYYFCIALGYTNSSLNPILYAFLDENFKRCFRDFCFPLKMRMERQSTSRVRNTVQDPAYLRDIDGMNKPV
# KOR, sequence (P41145 whole entry): as the sequence (P41145 whole entry D138N) above, with N138D counted along it
# E297A mutant, sequence (P41145 whole entry E297A): as the sequence (P41145 whole entry D138N) above, with N138D, E297A counted along it
smiles,measurement,setting,value
"COC(=O)[C@@H]1C[C@H](O)C(=O)[C@H]2[C@@]1(C)CC[C@H]1C(=O)O[C@H](c3ccoc3)C[C@]21C [Salvinorin B, salvinorin B]",activity against a large number of CNS molecular targets,[1],failed to show any activity
same,hot plate test effect (analgesia),[2],did not alter performance relative to controls
same,Emax,[3],94%
same,Emax (%),[3],100%
same,effect of E297A mutation on agonist potency,[4],no effect on SALB agonist potency
same,rotarod test effect (impairment of motor performance),[5],did not alter performance relative to controls
same,activity at muscarinic receptor-based DREADDs,[6],inactive
same,mIPSCs (frequency and amplitude),[7],no effect
same,feeding effect,[8],no feeding effects
same,Emax,[9],80%
same,Emax (%),[9],100%
same,brain stimulation reward thresholds (ICSS),[10],failed to significantly elevate thresholds
same,locomotor activity vs vehicle,[11],enhanced locomotor activity
